In patent EP0400609A1, “Intravenous solutions with quick action onset” (CIBA-GEIGY AG, priority 1989, dated 1990):
Read-outs that look alike come from different tables or passages of the source.

How the values were obtained:
[1] = test system: Tonische Konvulsionen der Hinterextremitäten; assay: Maximal electroshock test in mice; assay type: in vivo, Mäuse; details: for ED50: Mus musculus
Description: Die akute Schutzwirkung von Carbamazepin nach intravenöser Verabreichung im Vergleich zur oralen wurde mit Hilfe des maximalen Elektroschocks ermittelt. Die folgenden Methoden wurden verwendet: - Elektroschock Test an Ratten: Tonische Konvulsionen […] durch Verabreichung eines Wechselstroms von 50 Hz und 36 mA während 0,63 Sekunden mit Hilfe von Cornealelektroden ausgelöst. Es wurden 10 Ratten pro Dosis und Zeiteinheit verwendet; eine Gruppe diente als Kontrolle. Die Anzahl der Ratten, die keine tonische Konvulsion […], wurde für jede Gruppe bestimmt. Die ED50 wurde mit Hilfe der Regressionsanalyse nach der Methode von Spearman und Kärber berechnet. - Elektroschock Test an Mäusen: Tonische Konvulsionen […] durch Verabreichung eines Wechselstromes von 50 Hz und 18 […] jede Dosis und Zeiteinheit wurden 10 Mäuse verwendet; eine Gruppe diente als Kontrolle. Die Anzahl der Mäuse, die keine tonische Konvulsion […], wurde für jede Gruppe bestimmt. Die ED50 wurde mit Hilfe der Regressionsanalyse nach der Methode von Spearman und Kärber bestimmt.

[2] = test system: Tonische Konvulsionen der Kinterextremitäten; assay: Maximal electroshock test in rats; assay type: in vivo, Ratten; details: for ED50: Rattus norvegicus
Description: Die akute Schutzwirkung von Carbamazepin nach intravenöser Verabreichung im Vergleich zur oralen wurde mit Hilfe des maximalen Elektroschocks ermittelt. Die folgenden Methoden wurden verwendet: - Elektroschock Test an Ratten: Tonische Konvulsionen der Kinterextremitäten wurden durch Verabreichung eines Wechselstroms von 50 Hz und 36 mA während 0,63 Sekunden mit Hilfe von Cornealelektroden ausgelöst. Es wurden 10 Ratten pro Dosis und Zeiteinheit verwendet; eine Gruppe diente als Kontrolle. Die Anzahl der Ratten, die keine tonische Konvulsion der Hinterextremitäten aufwiesen, wurde für jede Gruppe bestimmt. Die ED₅₀ wurde mit Hilfe der Regressionsanalyse nach der Methode von Spearman und Kärber berechnet. - Elektroschock Test an Mäusen: Tonische Konvulsionen der Hinterextremitäten wurden durch Verabreichung eines Wechselstromes von 50 Hz und 18 mA während 0,2 Sekunden mittels Cornealelektroden ausgelöst. Für jede Dosis und Zeiteinheit wurden 10 Mäuse verwendet; eine Gruppe diente als Kontrolle. Die Anzahl der Mäuse, die keine tonische Konvulsion der Hinterextremitäten zeigten, wurde für jede Gruppe bestimmt. Die ED₅₀ wurde mit Hilfe der Regressionsanalyse nach der Methode von Spearman und Kärber bestimmt.

[3] = Dissolution of dry preparations in water; assay type: physicochemical; details: without aids, at 20°C
Procedure: Die unter den Nummern 14 bis 17 hergestellten Trockenpräparate lösen sich ohne Hilfsmittel in weniger als einer Minute bei 20°C in Wasser, während sich mikrokristallisiertes Carbamazepin unter den gleichen Bedingungen nicht löst.

With `NC(=O)N1c2ccccc2C=Cc2ccccc21` [Carbamazepin, 5H-Dibenz[b,f]azepin-5-carboxamid] as the molecule, how does the ED50 ([1]; 2.5 min, intravenous, 2,5 min after dosing, read-out: ED₅₀ in mg/kg intravenös Mäuse) read?
Its ED50 is 5.4 mg/kg.

And the ED50 ([1]; 5 min, intravenous, 5 min after dosing, read-out: ED₅₀ in mg/kg intravenös Mäuse)?
The ED50 was 6.2 mg/kg.

What about the ED50 ([1]; 5 min, oral, 5 min after dosing, read-out: ED₅₀ in mg/kg oral Mäuse) of the same molecule?
Its ED50 is 22.7 mg/kg.

What about the ED50 ([1]; 0.25 h, intravenous, 15 min after dosing, read-out: ED₅₀ in mg/kg intravenös Mäuse) of the same molecule?
Its ED50 is 5.4 mg/kg.

What about the ED50 ([1]; 0.25 h, oral, 15 min after dosing, read-out: ED₅₀ in mg/kg oral Mäuse) of the same molecule?
Its ED50 is 22.3 mg/kg.

What about the ED50 ([1]; 0.5 h, intravenous, 30 min after dosing, read-out: ED₅₀ in mg/kg intravenös Mäuse) of the same molecule?
The ED50 was 6.2 mg/kg.

What about the ED50 ([1]; 0.5 h, oral, 30 min after dosing, read-out: ED₅₀ in mg/kg oral Mäuse) of the same molecule?
The ED50 was 10.7 mg/kg.

What about the ED50 ([1]; 1 h, intravenous, 60 min after dosing, read-out: ED₅₀ in mg/kg intravenös Mäuse) of the same molecule?
Its ED50 is 9.3 mg/kg.

What about the ED50 ([1]; 1 h, oral, 60 min after dosing, read-out: ED₅₀ in mg/kg oral Mäuse) of the same molecule?
The ED50 was 13 mg/kg.

And the ED50 ([1]; 2 h, intravenous, 120 min after dosing, read-out: ED₅₀ in mg/kg intravenös Mäuse)?
The ED50 was 15.8 mg/kg.

What about the ED50 ([1]; 2 h, oral, 120 min after dosing, read-out: ED₅₀ in mg/kg oral Mäuse) of the same molecule?
The ED50 was 27 mg/kg.

And the ED50 ([1]; 4 h, intravenous, 240 min after dosing, read-out: ED₅₀ in mg/kg in Mäuse)?
Its ED50 is over 20 mg/kg.

What about the “Schutzwirkung, % bei 60, oral Mäuse” value ([1]; oral, 2,5 min after dosing, at 60 (column unit mg/kg), printed in place of an ED₅₀) of the same molecule?
The value was 10 % bei 60.

And the ED50 ([2]; 2.5 min, intravenous, 2,5 min after dosing, read-out: ED₅₀ in mg/kg intravenös Ratten)?
The ED50 was 1.9 mg/kg.

And the ED50 ([2]; 2.5 min, oral, 2,5 min after dosing, read-out: ED₅₀ in mg/kg oral Ratten)?
The ED50 was over 60 mg/kg.

And the ED50 ([2]; 5 min, intravenous, 5 min after dosing, read-out: ED₅₀ in mg/kg intravenös Ratten)?
Its ED50 is 1.6 mg/kg.

And the ED50 ([2]; 5 min, oral, 5 min after dosing, read-out: ED₅₀ in mg/kg oral Ratten)?
The ED50 was 60 mg/kg.

What about the ED50 ([2]; 0.25 h, intravenous, 15 min after dosing, read-out: ED₅₀ in mg/kg intravenös Ratten) of the same molecule?
The ED50 was 2.5 mg/kg.

And the ED50 ([2]; 0.25 h, oral, 15 min after dosing, read-out: ED₅₀ in mg/kg oral Ratten)?
The ED50 was 15.4 mg/kg.

What about the ED50 ([2]; 0.5 h, intravenous, 30 min after dosing, read-out: ED₅₀ in mg/kg intravenös Ratten) of the same molecule?
The ED50 was 3 mg/kg.

What about the ED50 ([2]; 0.5 h, oral, 30 min after dosing, read-out: ED₅₀ in mg/kg oral Ratten) of the same molecule?
Its ED50 is 9.6 mg/kg.

And the ED50 ([2]; 1 h, intravenous, 60 min after dosing, read-out: ED₅₀ in mg/kg intravenös Ratten)?
Its ED50 is 2.5 mg/kg.

What about the ED50 ([2]; 1 h, oral, 60 min after dosing, read-out: ED₅₀ in mg/kg oral Ratten) of the same molecule?
Its ED50 is 10 mg/kg.

And the ED50 ([2]; 2 h, intravenous, 120 min after dosing, read-out: ED₅₀ in mg/kg intravenös Ratten)?
Its ED50 is 4 mg/kg.

And the ED50 ([2]; 2 h, oral, 120 min after dosing, read-out: ED₅₀ in mg/kg oral Ratten)?
The ED50 was 12.5 mg/kg.

What about the “Schutzwirkung, % bei 10 mg/kg, Ratten” value ([2]; intravenous, 240 min after dosing, 10 mg/kg, printed in place of an ED₅₀) of the same molecule?
The value was 40 % bei 10 mg/kg.

What about the “Auflösung in Wasser” value [3] of the same molecule?
The value was “nicht löst”.
